Here are results for 13 molecules from US20100048606A1, “10-Substituted Cytisine Derivatives and Methods of Use Thereof” (Georgetown University Office of Technology Commercialization, priority 2006, published 2010).

One test has as its target T1, α3β4 nAChR (Rattus norvegicus, UniProt P04757+P12392).
T1 construct: expressed in transfected cells
Description: Competition binding with [3H]epibatidine, membrane homogenates of stably transfected cells. The conditions noted are these: for potency estimated from few doses: read-out: Estimated Ki α3β4.

Another test deals with T2, α2β2 nAChR (Rattus norvegicus, UniProt P12389+P12390).
T2 construct: expressed in transfected cells
The test is described as above. As to conditions: for potency estimated from few doses: read-out: Estimated Ki α2β2.

The next test concerns the target T3, α4β2 nAChR (Rattus norvegicus, UniProt P09483+P12390).
T3 construct: expressed in transfected cells
The description is as above. The conditions noted are these: for Affinity ratio (α3β4/α4β2): Ki α3β4 divided by Ki α4β2; for potency estimated from few doses: read-out: Estimated Ki α4β2.

Another test addresses T4, α4β4 nAChR (Rattus norvegicus, UniProt P09483+P12392).
T4 construct: expressed in transfected cells
The test is described as above. The conditions noted are these: for potency estimated from few doses: read-out: Estimated Ki α4β4.

The target of another test is T5, α2β4 nAChR (Rattus norvegicus, UniProt P12389+P12392).
T5 construct: expressed in transfected cells
Described as above. The conditions noted are these: for potency estimated from few doses: read-out: Estimated Ki α2β4.

Test [1] has as its target nAChRs of rat forebrain tissue (Rattus norvegicus, UniProt P09483+P12390). The class given is binding. The conditions noted are these: for Ki: mean of three to five independent measurements.
The target in a further test is T6, α3β2 nAChR (Rattus norvegicus, UniProt P04757+P12390).
T6 construct: expressed in transfected cells
Nature of the test: Competition binding with [3H]epibatidine, membrane homogenates of stably transfected cells. The conditions noted are these: for potency estimated from few doses: read-out: Estimated Ki α3β2.

The target of another test is T7, α4β2 nAChR's (Homo sapiens, UniProt P17787+P43681).
T7 construct: expressed in transfected cells
Nature of the test: 86Rb+ efflux assay, agonist activity. The conditions noted are these: tested at 0.1, 1, 10 and 100 μM. The class given is cell-based.

Another test concerns the target T8, α3β4 nAChR subtype (Rattus norvegicus, UniProt P04757+P12392).
T8 construct: expressed in transfected cells; host or cells: KXα3β4R2 cells (named in the result head)
Nature of the test: Antagonist activity, block of nicotine stimulated responses. The class given is cell-based. As to conditions: for Inhibition of the function of the α3β4 nAChR subtype: at 100 μM; for Block of nicotine stimulated responses at α3β4: concentrations up to 10 μM. As for the experimental part: (§1) Compounds 15 and 17a are antagonists of the α4β2 nAChR subtype. […] Compounds 15 and 17a were tested for their antagonist activities at the α4β2 and α3β4 receptors at concentrations from 0.1 μM to 100 μM. […] This is typical of most classical nicotinic ligands.^34

The next test addresses T9, α4β2 nAChR subtype (Homo sapiens, UniProt P17787+P43681).
T9 construct: expressed in transfected cells
The description is as above. The class given is cell-based. The conditions noted are these: for inhibition at 100 µM: read-out: Inhibition of the function of the α4β2 nAChR subtype; for Block of nicotine stimulated responses at α4β2: concentrations up to 10 μM. As for the experimental part:
as §1

A further test has as its system α6β42. Description: Primary screening, single concentration competition binding assay. As to conditions: estimated from single concentration (10 μM) competition binding, read-out: Estimated Ki α6β42.
Where [2] appears, read: estimated from single run concentration binding assay.
Where [3] appears, read: mean of three to five independent measurements, [3H]epibatidine, read-out: Ki α3β4.
[4] abbreviates: mean of three to five independent measurements, [3H]epibatidine, read-out: Ki α2β2.
Where [5] appears, read: mean of three to five independent measurements, [3H]epibatidine, read-out: Ki α4β2.
[6] abbreviates: mean of three to five independent measurements, [3H]epibatidine, read-out: Ki α4β4.
The mark [7] stands for this setting: mean of three to five independent measurements, [3H]epibatidine, read-out: Ki α2β4.
[8] abbreviates: mean of three to five independent measurements, [3H]epibatidine, read-out: Ki α3β2.
The mark [9] stands for this setting: primary screening, estimated from single concentration (10 μM) competition binding.

Read-outs that look alike come from different tables or passages of the source.

Turning to “10-Cyclohexyl(methoxymethyl)-1,2,3,4,5,6-hexahydro-1,5-methano-pyrido[1,2-a][1,5]diazocin-8-one [rac-25]”, the potency estimated from few doses was 25 µM at α3β4 nAChR (setting [2]); below 0.017 µM on α2β2 nAChR (setting [2]); below 0.029 µM at α4β2 nAChR (setting [2]); 0.15 µM on α4β4 nAChR (setting [2]); 0.78 µM on α2β4 nAChR (setting [2]); 0.17 µM in test [1] (estimated from single run concentration binding assay, read-out: Estimated Ki Forebrain). The potency estimated from few doses at α3β2 nAChR (setting [2]) was 0.8 µM. In addition, the “Affinity ratio (α3β4/α4β2)” value on α4β2 nAChR was above 862.

`Cc1cc2n(c(=O)c1)CC1CNCC2C1` (racemic) [rac-15, 10-Methyl-1,2,3,4,5,6-hexahydro-1,5-methano-pyrido[1,2-a][1,5]diazocin-8-one]: the Ki on α3β4 nAChR came out at 6.7 µM; at α2β2 nAChR, 0.0075 µM; at α4β2 nAChR, 0.0019 µM; on α4β4 nAChR it was 0.038 µM; at α2β4 nAChR, 0.18 µM; on α3β2 nAChR, 0.54 µM. On α4β2 nAChR's, the “Agonist activity at α4β2 (86Rb+ efflux)” value is recorded as “did not show agonist activity”. In addition, the “Inhibition of the function of the α3β4 nAChR subtype” value on α3β4 nAChR subtype is given as “only slightly inhibited”. In addition, at α3β4 nAChR subtype, the “Block of nicotine stimulated responses at α3β4” value was “did not significantly block nicotine stimulated responses”. Moreover, the inhibition at 100 µM on α4β2 nAChR subtype was above 50%. At α4β2 nAChR subtype, the “Block of nicotine stimulated responses at α4β2” value is recorded as “did not significantly block nicotine stimulated responses”. For the same molecule, the figures for the “Affinity ratio (α3β4/α4β2)” value on α4β2 nAChR and at α4β2 nAChR (listed as 15) were 3526 and above 3000, respectively.

In the case of `O=c1cc(CO)cc2n1CC1CNCC2C1` (racemic) [rac-17a, 10-(Hydroxymethyl)-1,2,3,4,5,6-hexahydro-1,5-methano-pyrido[1,2-a][1,5]diazocin-8-one], the Ki turned out to be 10 µM at α3β4 nAChR; 0.032 µM on α2β2 nAChR; 0.011 µM at α4β2 nAChR; 0.068 µM at α4β4 nAChR; 0.3 µM at α2β4 nAChR; 0.467 µM on α3β2 nAChR. Besides, the “Agonist activity at α4β2 (86Rb+ efflux)” value on α4β2 nAChR's is given as “did not show agonist activity”. On α3β4 nAChR subtype, the “Inhibition of the function of the α3β4 nAChR subtype” value is on record as “only slightly inhibited”. Also, the “Block of nicotine stimulated responses at α3β4” value on α3β4 nAChR subtype is given as “did not significantly block nicotine stimulated responses”. Further, the inhibition at 100 µM on α4β2 nAChR subtype is above 50%. In addition, the “Block of nicotine stimulated responses at α4β2” value at α4β2 nAChR subtype is listed as “did not significantly block nicotine stimulated responses”. The “Affinity ratio (α3β4/α4β2)” value on α4β2 nAChR is reported as 909.

In the case of `O=c1c(-c2ccc(F)cc2)ccc2n1CC1CNCC2C1` (single isomer, unassigned; (-)) [(−)-21a, 9-(4-Fluorophenyl)-1,2,3,4,5,6-hexahydro-1,5-methano-pyrido[1,2-a][1,5]diazocin-8-one], the Ki was determined as 66 µM at α3β4 nAChR (setting [3]); 0.82 µM on α2β2 nAChR (setting [4]); 0.42 µM on α4β2 nAChR (setting [5]); 3.3 µM at α4β4 nAChR (setting [6]); 8.1 µM on α2β4 nAChR (setting [7]); 3.1 µM in test [1]. Further, the Ki on α3β2 nAChR (setting [8]) came out at 12 µM. Further, the “Affinity ratio (α3β4/α4β2)” value on α4β2 nAChR came out at 157.

As for `CCCCc1ccc(-c2ccc3n(c2=O)CC2CNCC3C2)cc1` (single isomer, unassigned; (-)) [(−)-21b, 9-(4-Butylphenyl)-1,2,3,4,5,6-hexahydro-1,5-methano-pyrido[1,2-a][1,5]diazocin-8-one], the Ki at α3β4 nAChR (setting [3]) worked out at 140 µM; at α2β2 nAChR (setting [4]), 8 µM; at α4β2 nAChR (setting [5]) it was 8.2 µM; on α4β4 nAChR (setting [6]) it was 13 µM; at α2β4 nAChR (setting [7]) it was 28 µM; in [1] it was 21 µM. For the same molecule, the Ki at α3β2 nAChR (setting [8]) worked out at 36 µM. Further, the “Affinity ratio (α3β4/α4β2)” value at α4β2 nAChR was found to be 17.

Turning to `Cc1ccc(-c2ccc3n(c2=O)CC2CNCC3C2)s1` (single isomer, unassigned; (-)) [(−)-21c, 9-(5-Methyl-2-thienyl)-1,2,3,4,5,6-hexahydro-1,5-methano-pyrido[1,2-a][1,5]diazocin-8-one], the Ki at α3β4 nAChR (setting [3]) was found to be 23 µM; at α2β2 nAChR (setting [4]), 0.5 µM; on α4β2 nAChR (setting [5]), 0.39 µM; on α4β4 nAChR (setting [6]), 0.59 µM; at α2β4 nAChR (setting [7]), 1.7 µM; in test [1], 1.2 µM. Besides, the Ki at α3β2 nAChR (setting [8]) came to 6 µM. The “Affinity ratio (α3β4/α4β2)” value on α4β2 nAChR is 59.

`COC(=O)[C@H]1C2CNCC(C2)c2cccc(=O)n21` (single isomer, unassigned; (-)) [(−)-22, 8-Oxo-1,3,4,5,6,8-hexahydro-2H-1,5-methano-pyrido[1,2-a][1,5]diazocine-6-carboxylic acid methyl ester]: the Ki on α3β4 nAChR (setting [3]) was 320 µM; on α2β2 nAChR (setting [4]), 17 µM; at α4β2 nAChR (setting [5]), 24 µM; at α4β4 nAChR (setting [6]) it was 33 µM; at α2β4 nAChR (setting [7]) it was 75 µM; in test [1], 48 µM. Moreover, on α3β2 nAChR (setting [8]), the Ki is 250 µM. Moreover, on α4β2 nAChR, the “Affinity ratio (α3β4/α4β2)” value worked out at 13.

Take `CCC(=O)[C@H]1C2CNCC(C2)c2cccc(=O)n21` (single isomer, unassigned; (-)) [(−)-23, 6-Propionyl-1,2,3,4,5,6-hexahydro-1,5-methano-pyrido[1,2-a][1,5]diazocin-8-one]: the Ki amounted to 280 µM at α3β4 nAChR (setting [3]); 14 µM on α2β2 nAChR (setting [4]); 16 µM at α4β2 nAChR (setting [5]); 20 µM at α4β4 nAChR (setting [6]); 50 µM on α2β4 nAChR (setting [7]); 23 µM in test [1]. Besides, the Ki at α3β2 nAChR (setting [8]) was 300 µM. Further, the “Affinity ratio (α3β4/α4β2)” value at α4β2 nAChR was 18.

Turning to `O=c1ccccn1CC1CCCNC1` (centres unmarked) [Compound 6a, 1-(Piperidin-3-ylmethyl)pyridin-2(1H)-one], the potency estimated from few doses on α3β4 nAChR (setting [9]) was 535 µM; on α2β2 nAChR (setting [9]) it was 4.63 µM; in the test on α6β42 it was 253 µM; on α4β2 nAChR (setting [9]), 1.78 µM; at α4β4 nAChR (setting [9]), 5.55 µM; on α2β4 nAChR (setting [9]) it was 159 µM. In addition, the potency estimated from few doses on α3β2 nAChR (setting [9]) is 18.7 µM.

Consider `CN1CCCC(Cn2ccccc2=O)C1` (centres unmarked) [Compound 6b, 1-[(1-Methylpiperidin-3-yl)methyl]pyridin-2(1H)-one], for which the potency estimated from few doses is 160 µM at α3β4 nAChR (setting [9]); 19 µM at α2β2 nAChR (setting [9]); 76 µM in the test on α6β42; 0.98 µM on α4β2 nAChR (setting [9]); 2.6 µM at α4β4 nAChR (setting [9]); 180 µM at α2β4 nAChR (setting [9]). Besides, the potency estimated from few doses on α3β2 nAChR (setting [9]) is 6 µM.

With `O=c1ccccn1CC1CCCN(Cc2ccccc2)C1` (centres unmarked) [Compound 6c, 1-[(1-Benzylpiperidin-3-yl)methyl]pyridin-2(1H)-one], the potency estimated from few doses at α3β4 nAChR (setting [9]) was 83 µM; on α2β2 nAChR (setting [9]), 100 µM; with α6β42 it was 54 µM; on α4β2 nAChR (setting [9]) it was 0.54 µM; on α4β4 nAChR (setting [9]), 1.4 µM; on α2β4 nAChR (setting [9]), 91 µM. On α3β2 nAChR (setting [9]), the potency estimated from few doses is 4.3 µM.

For `O=c1ccccn1CC1CCNCC1` [Compound 7a, 1-(Piperidin-4-ylmethyl)pyridin-2(1H)-one], the potency estimated from few doses is 750 µM on α3β4 nAChR (setting [9]); 87 µM in the test with α6β42; 1.6 µM at α4β2 nAChR (setting [9]); 5.4 µM on α4β4 nAChR (setting [9]); 80 µM on α2β4 nAChR (setting [9]); 12 µM at α3β2 nAChR (setting [9]).

`O=c1ccccn1CC1CCN(Cc2ccccc2)CC1` [Compound 7b, 1-[(1-Benzyl-piperidin-4-yl)methyl]pyridin-2(1H)-one]: the potency estimated from few doses at α3β4 nAChR (setting [9]) is 620 µM; on α2β2 nAChR (setting [9]) it was 26 µM; in the test on α6β42 it was 470 µM; on α4β2 nAChR (setting [9]), 1.3 µM; at α4β4 nAChR (setting [9]), 4.5 µM; on α2β4 nAChR (setting [9]), 440 µM. For the same molecule, the potency estimated from few doses at α3β2 nAChR (setting [9]) was 7.3 µM.
